Assay results reported in patent US20100227313A1, “Methods and Compositions for Determining Altered Susceptibility of HIV-1 to Protease Inhibitor Treatment” (priority 2007, published 2010).

Tests used:
HIV-1 = test: Resistance test vector (PHENOSENSE) phenotypic susceptibility assay, fold change in IC50, correlated with genotype (Fisher's Exact test, odds ratio); assay type: cell-based, human immunodeficiency virus type 1; settings: 2862 clinical samples; FC relative to wild-type (NL4-3); FIG. 1
Source text: See Petropoulos et al., 2000, Antimicrob. Agents Chemother. 44:920-928; U.S. Pat. Nos. 5,837,464 and 6,242,187. PHENOSENSE™ is a phenotypic assay that achieves the benefits of phenotypic testing and overcomes the drawbacks of previous assays.
PHENOSENSE™ can obtain results with only one round of viral replication, thereby avoiding selection of subpopulations of virus that can occur during preparation of viral stocks required for assays that rely on fully infectious virus.
A resistance test vector (“RTV”) can then be constructed by incorporating the amplified viral gene sequences into a replication defective viral vector by using any method known in the art of incorporating gene sequences into a vector. In one embodiment, restrictions enzymes and conventional cloning methods are used. See Sambrook et al., 2001, Molecular Cloning: A Laboratory Manual, Cold Spring Harbor Laboratory, 3rd ed., NY; and Ausubel et al., 1989, Current Protocols in Molecular Biology, Greene Publishing Associates and Wiley Interscience, NY. In a preferred embodiment, ApaI and PinAI restriction enzymes are used. Preferably, the replication defective viral vector is the indicator gene viral vector (“IGVV”). In a preferred embodiment, the viral vector contains a means for detecting replication of the RTV. Preferably, the viral vector contains a luciferase expression cassette.
The assay can be performed by first co-transfecting host cells with RTV DNA and a plasmid that expresses the envelope proteins of another retrovirus, for example, amphotropic murine leukemia virus (MLV). Following transfection, viral particles can be harvested from the cell culture and used to infect fresh target cells in the presence of varying amounts of anti-viral drug(s). The completion of a single round of viral replication in the fresh target cells can be detected by the means for detecting replication contained in the vector. In a preferred embodiment, the completion of a single round of viral replication results in the production of luciferase. By monitoring the amount of, e.g., luciferase activity in the presence of the varying amounts of antiviral drug(s), a resistance curve can be constructed by plotting luciferase activity versus drug concentration. The susceptibility of an HIV, or population of HIV, can be determined by measuring the concentration of antiviral drug at which the luciferase activity detected is half-maximal. This number, the IC50, provides a standard and convenient measure of drug resistance.
Patient derived segment(s) corresponding to the HIV protease and reverse transcriptase coding regions were amplified by the reverse transcription polymerase chain reaction method (RT PCR) using viral RNA isolated from viral particles present in the plasma or serum of HIV infected individuals as follows. Viral RNA was isolated from the plasma or serum using oligo-dT magnetic beads (Dynal Biotech, Oslo, Norway), followed by washing and elution of viral RNA. The RT PCR protocol was divided into two steps. A retroviral reverse transcriptase (e.g. Moloney MuLV reverse transcriptase (Roche Molecular Systems, Inc., Branchburg, N.J.; Invitrogen, Carlsbad, Calif.), or avian myeloblastosis virus (AMV) reverse transcriptase, (Boehringer Mannheim, Indianapolis, Ind.) was used to copy viral RNA into cDNA. The cDNA was then amplified using a thermostable DNA polymerase (e.g. Taq (Roche Molecular Systems, Inc., Branchburg, N.J.), Tth (Roche Molecular Systems, Inc., Branchburg, N.J.), PRIMEZYME™ (isolated from Thermus brockianus, Biometra, Gottingen, Germany)) or a combination of thermostable polymerases as described for the performance of “long PCR” (Barnes, W.M., 1994, Proc. Natl. Acad. Sci, USA 91, 2216 20) (e.g. Expand High Fidelity PCR System (Taq+Pwo), (Boehringer Mannheim. Indianapolis, Ind.); GENEAMP XL™ PCR kit (Tth+Vent), (Roche Molecular Systems, Inc., Branchburg, N.J.); or […] II®, Clontech, Palo Alto, Calif.)

HIV protease = settings: 2006, cited from earlier work; for effect of L33F mutation in protease on susceptibility: Kozal et al.; for effect of I47A mutation on susceptibility: de Mendoza et al.

Row | Compound | correlation of FC in susceptibility with the FC in susceptibility for DRV (HIV-1) | effect of L33F mutation in protease on susceptibility (HIV protease) | effect of I47A mutation on susceptibility (HIV protease)
1 | COC(=O)N[C@H](C(=O)N[C@@H](Cc1ccccc1)[C@@H](O)CN(Cc1ccc(-c2ccccn2)cc1)NC(=O)[C@@H](NC(=O)OC)C(C)(C)C)C(C)(C)C [ATV, atazanavir] | no correlation | – | –
2 | CC(C)c1nc(CN(C)C(=O)N[C@H](C(=O)N[C@@H](Cc2ccccc2)C[C@H](O)[C@H](Cc2ccccc2)NC(=O)OCc2cncs2)C(C)C)cs1 [ritonavir] | – | correlate with resistance | –
3 | CC(C)(C)NC(=O)[C@@H]1C[C@@H]2CCCC[C@@H]2CN1C[C@@H](O)[C@H](Cc1ccccc1)NC(=O)[C@H](CC(N)=O)NC(=O)c1ccc2ccccc2n1 [saquinavir] | – | correlate with resistance | hypersusceptibility
4 | Cc1cccc(C)c1OCC(=O)N[C@@H](Cc1ccccc1)[C@@H](O)C[C@H](Cc1ccccc1)NC(=O)[C@H](C(C)C)N1CCCNC1=O [LPV, lopinavir] | no correlation | correlate with resistance | reduced susceptibility
